Results reported in ChEMBL document CHEMBL1155227, “Identification of N-(5-tert-butyl-isoxazol-3-yl)-N'-{4-[7-(2-morpholin-4-yl-ethoxy)imidazo[2,1-b][1,3]benzothiazol-2-yl]phenyl}urea dihydrochloride (AC220), a uniquely potent, selective, and efficacious FMS-like tyrosine kinase-3 (FLT3) inhibitor” (J Med Chem, 2009).

How the values were obtained:
MV4-11 = assay: cells; details: Homo sapiens, MV4-11, 72 h
Description: Antiproliferative activity against human MV4-11 cells after 72 hrs by cell titer-blue cell viability assay

[1] = target: T1, Receptor-type tyrosine-protein kinase FLT3 (Homo sapiens, UniProt P36888); assay: biochemical; assay type: cell-based, HEK293
T1 sequence (P36888 whole entry): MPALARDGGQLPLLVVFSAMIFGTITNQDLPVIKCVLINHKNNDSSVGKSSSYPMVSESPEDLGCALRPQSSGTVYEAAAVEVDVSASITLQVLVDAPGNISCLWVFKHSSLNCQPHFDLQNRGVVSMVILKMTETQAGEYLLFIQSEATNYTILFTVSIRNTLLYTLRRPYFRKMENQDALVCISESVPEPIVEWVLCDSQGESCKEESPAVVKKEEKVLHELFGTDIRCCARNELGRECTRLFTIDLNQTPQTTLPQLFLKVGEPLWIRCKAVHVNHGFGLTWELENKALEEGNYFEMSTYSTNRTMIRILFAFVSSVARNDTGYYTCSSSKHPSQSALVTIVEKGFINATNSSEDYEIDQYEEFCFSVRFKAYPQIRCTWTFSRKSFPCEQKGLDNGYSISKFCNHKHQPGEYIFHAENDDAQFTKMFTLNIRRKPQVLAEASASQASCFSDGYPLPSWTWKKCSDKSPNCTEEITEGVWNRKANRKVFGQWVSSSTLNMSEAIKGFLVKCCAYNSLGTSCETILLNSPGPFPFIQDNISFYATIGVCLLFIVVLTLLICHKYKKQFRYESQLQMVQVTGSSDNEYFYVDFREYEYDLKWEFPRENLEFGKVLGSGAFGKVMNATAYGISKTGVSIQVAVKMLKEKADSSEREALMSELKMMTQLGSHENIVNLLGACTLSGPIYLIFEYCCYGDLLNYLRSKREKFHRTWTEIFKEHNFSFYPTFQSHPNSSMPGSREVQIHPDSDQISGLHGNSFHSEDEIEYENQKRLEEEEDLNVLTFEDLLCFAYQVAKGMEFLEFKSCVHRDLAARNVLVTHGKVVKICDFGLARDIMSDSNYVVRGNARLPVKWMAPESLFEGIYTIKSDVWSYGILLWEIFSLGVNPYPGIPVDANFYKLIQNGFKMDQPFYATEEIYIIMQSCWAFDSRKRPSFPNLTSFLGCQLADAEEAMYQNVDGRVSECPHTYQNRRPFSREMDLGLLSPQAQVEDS
Description: Binding affinity to FLT3 catalytic domain expressed in HEK293 cells by competitive binding assay

in vivo [2] = details: athymic nude, mouse, plasma, po, 10 mg/kg
Description: AUC (0 to infinity) in athymic nude mouse at 10 mg/kg, po

in vivo [3] = details: athymic nude, mouse, po, 10 mg/kg
Description: Half life in athymic nude mouse at 10 mg/kg, po

in vivo [4] = details: athymic nude, mouse, po, 10 mg/kg; remark: listed apart in the source
Description: Cmax in athymic nude mouse at 10 mg/kg, po

| SMILES | IC50 (MV4-11) [nM] | Kd [1] [nM] | AUC(0-inf) (in vivo [2]) [µM·h] | half-life (in vivo [3]) [h] | Cmax (in vivo [4]) [nM] |
| --- | --- | --- | --- | --- | --- |
| CC(C)(C)c1cc(NC(=O)Nc2ccc(-c3cn4c(n3)sc3ccc(OCCN5CCOCC5)cc34)cc2)no1 | 0.56 | 2.3 |  |  |  |
| CN1CCN(CCCOc2ccc3c(c2)sc2nc(-c4ccc(NC(=O)Nc5cc(C(C)(C)C)on5)cc4)cn23)CC1 | 0.78 | 1.7 |  |  |  |
| CC(C)(C)c1cc(NC(=O)Nc2ccc(-c3cn4c(n3)sc3cc(OCCCN5CCOCC5)ccc34)cc2)no1 | 0.79 | 0.99 |  |  |  |
| CCN1CCN(C(=O)CCc2ccc3c(c2)sc2nc(-c4ccc(NC(=O)Nc5cc(C(C)(C)C)on5)cc4)cn23)CC1 | 0.66 | 2 |  |  |  |
| CC(C)(C)c1cc(NC(=O)Nc2ccc(-c3cn4c(n3)sc3cc(OCCN5CCCCC5)ccc34)cc2)no1 | 0.88 | 1.5 |  |  |  |
| CN1CCN(c2ccc3c(c2)sc2nc(-c4ccc(NC(=O)Nc5cc(C(C)(C)C)on5)cc4)cn23)CC1 | 0.62 | 1.2 |  |  |  |
| CC(C)(C)c1cc(NC(=O)Nc2ccc(-c3cn4c(n3)sc3cccc(OCCN5CCOCC5)c34)cc2)no1 | 9.3 | 5.2 |  |  |  |
| CC(C)(C)c1cc(NC(=O)Nc2ccc(-c3cn4c(n3)sc3cc(CCC(=O)O)ccc34)cc2)no1 | 0.41 | 1.3 |  |  |  |
| CC(C)(C)c1cc(NC(=O)Nc2ccc(-c3cn4c(n3)sc3cc(CCCN5CCOCC5)ccc34)cc2)no1 | 0.53 | 1.3 | 14.6 | 2.3 | 2190 |
| CC(C)(C)c1cc(NC(=O)Nc2ccc(-c3cn4c(n3)sc3cc(C(=O)O)ccc34)cc2)no1 | 1 | 1.6 | 21.3 | 4.5 | 2090 |
| CC(C)(C)c1cc(NC(=O)Nc2ccc(-c3cn4c(n3)sc3cc(OCCCN5CCN(S(C)(=O)=O)CC5)ccc34)cc2)no1 | 1.1 | 9.7 | 11.7 | 4.6 | 1580 |

The remaining compounds from weak to strong by IC50 (MV4-11), led by results:

| IC50 (MV4-11) [nM] | Kd [1] [nM] | AUC(0-inf) (in vivo [2]) [µM·h] | half-life (in vivo [3]) [h] | Cmax (in vivo [4]) [nM] | SMILES |
| --- | --- | --- | --- | --- | --- |
| 0.41 | 0.98 | 0.67 | 6.7 | 490 | CCN1CCN(C(=O)c2ccc3c(c2)sc2nc(-c4ccc(NC(=O)Nc5cc(C(C)(C)C)on5)cc4)cn23)CC1 |
| 0.38 | 1.1 |  |  |  | CCN1CCN(Cc2ccc3c(c2)sc2nc(-c4ccc(NC(=O)Nc5cc(C(C)(C)C)on5)cc4)cn23)CC1 |
| 0.35 | 1.9 |  |  |  | CC(C)(C)c1cc(NC(=O)Nc2ccc(-c3cn4c(n3)sc3ccccc34)cc2)no1 |
| 0.23 | 1.5 |  |  |  | CC(C)(C)c1cc(NC(=O)Nc2ccc(-c3cn4c(n3)sc3cc(CCC(=O)N5CCOCC5)ccc34)cc2)no1 |
| 0.15 | 2.7 |  |  |  | CC(C)(C)c1cc(NC(=O)Nc2ccc(-c3cn4c(n3)sc3cc(O)ccc34)cc2)no1 |
